From US20250207131A1, “MODIFIED RNA AGENTS WITH REDUCED OFF-TARGET EFFECT” (Alnylam Pharmaceuticals, Inc., priority 2018, published 2025) come the findings set out here.

d = 2'-deoxy (DNA); r = 2'-OH (RNA); f = 2'-fluoro

A short description of series [1]: UV thermal melting temperatures of TNA 12-mer duplexes. The format is physicochemical. Particulars: 1×PBS; for ΔTm (° C.): relative to unmodified duplex; for Tm (° C.): TNA 12-mer duplexes, 2.0 μM each strand, pH 7.4. The text has this:
Values were reported as the maximum of the first derivative and are the average of at least two experiments. […] The structures x and y are shown here:
(§1) Values were reported as the maximum of the first derivative and are the average of at least two experiments.

Series [2] can be described thus: UV thermal melting temperatures of mUNA 12-mer duplexes. It counts as physicochemical. The settings on record: for ΔTm (° C.): relative to unmodified duplex; for Tm (° C.)a / Tm (° C.)b: mUNA 12-mer duplexes, 2.0 μM each strand, pH 7.4.
From the text: as §1

Take “AD-649425.1 (sense TACAGUCTATGT; antisense ACATAGACTGTA; sense: sugars from the 5' end d5 f1 d6, backbone not given here; antisense: sugars from the 5' end d6 f1 d5, backbone not given here)”: in series [1], the “ΔTm (° C.)” value is −2.5 °C and the “Tm (° C.)” value came to 40.17 °C.

In the case of “AD-511237.1 (sense UACAGUCUAUGU; antisense ACATAGACTGTA; sense: RNA, backbone not given here; antisense: DNA, backbone not given here)”, in series [2] (8×PBS), the “ΔTm (° C.)” value amounted to 0.0 °C and the “Tm (° C.)b” value stood at 45.1 °C. For the same substance, the “Tm (° C.)a” value in series [2] (1x PBS) worked out at 39.1 °C.

As to “AD-649421.1 (sense TACAGTCTATGT; antisense ACATAGACTGTA; chemistry not fully specified)”, in series [1], the “ΔTm (° C.)” value is −2.365 °C and the “Tm (° C.)” value was 40.055 °C.

Consider “AD-649409.1 (sense UACAGUCUAUGU; antisense ACAUAGACUGUA; chemistry not fully specified)”, for which, in series [1], the “ΔTm (° C.)” value is −4.9 °C and the “Tm (° C.)” value worked out at 47.67 °C.

In the case of “AD-64980.2 (sense UACAGUCUAUGU; antisense ACAUAGACUGUA; siRNA; one 2'-fluoro U in sense strand, plain letters not given here, further chemistry not given here)”, in series [1], the “ΔTm (° C.)” value came out at 0.52 °C and the “Tm (° C.)” value was 53.14 °C.

For “AD-511236.1 (sense TACAGUCTATGT; antisense ACATAGACTGTA; sense: chemistry not given here; antisense: DNA, backbone not given here; sense strand has one mUNA-type uridine (Uun))”, in series [2] (8×PBS), the “ΔTm (° C.)” value is −25.5 °C and the “Tm (° C.)b” value turned out to be 23.6 °C. In addition, the “Tm (° C.)a” value in series [2] (1x PBS) was under 30 °C.

As for “AD-511247.1 (sense TACAGTCTATGT; antisense ACAUAGACUGUA; sense: DNA, backbone not given here; antisense: RNA, backbone not given here)”, in series [2] (8×PBS), the “ΔTm (° C.)” value was 0.0 °C and the “Tm (° C.)b” value turned out to be 49.1 °C. For the same substance, the “Tm (° C.)a” value in series [2] (1x PBS) came out at 42.1 °C.

For the substance “AD-64367.4 (sense TACAGTCTATGT; antisense ACATAGACTGTA; DNA, backbone not given here)”, in series [1], the “ΔTm (° C.)” value is 0 °C and the “Tm (° C.)” value worked out at 42.67 °C.

In the case of “AD-649419.1 (sense TACAGTCTATGT; antisense ACATAGACTGTA; chemistry not fully specified)”, in series [1], the “ΔTm (° C.)” value came to 1.8 °C and the “Tm (° C.)” value worked out at 44.22 °C.

Take “AD-649416.1 (sense UACAGUCUAUGU; antisense ACAUAGACUGUA; sense: RNA, backbone not given here; antisense: sugars from the 5' end r5 f1 r6, backbone not given here)”: in series [1], the “ΔTm (° C.)” value was 2.7 °C and the “Tm (° C.)” value stood at 55.32 °C.

As to “AD-64366.2 (sense UACAGUCUAUGU; antisense ACAUAGACUGUA; RNA, backbone not given here)”, in series [2] (1x PBS), the “ΔTm (° C.)” value is 0.0 °C and the “Tm (° C.)a” value worked out at 52.1 °C. Besides, in series [2] (8×PBS), the “ΔTm (° C.)” value stood at 0.0 °C and the “Tm (° C.)b” value amounted to 61.1 °C.

Turning to “AD-649424.1 (sense TACAGTCTATGT; antisense ACATAGACTGTA; sense: DNA, backbone not given here; antisense: sugars from the 5' end d5 f1 d6, backbone not given here)”, in series [1], the “ΔTm (° C.)” value was 0.275 °C and the “Tm (° C.)” value turned out to be 42.945 °C.

Regarding “AD-72586.2 (sense TACAGTCTATGT; antisense ACATAGACTGTA; siRNA; chemistry not fully specified)”, in series [1], the “ΔTm (° C.)” value is 2.1 °C and the “Tm (° C.)” value turned out to be 40.32 °C.

With “AD-64367.3 (sense TACAGTCTATGT; antisense ACATAGACTGTA; DNA, backbone not given here)”, in series [1], the “ΔTm (° C.)” value is 0 °C and the “Tm (° C.)” value was 42.42 °C.

On to “AD-649411.1 (sense UACAGUCUAUGU; antisense ACAUAGACUGUA; chemistry not fully specified)”, for which, in series [1], the “ΔTm (° C.)” value is −11 °C and the “Tm (° C.)” value was found to be 41.57 °C.

For the substance “AD-649408.1 (sense UACAGUCUAUGU; antisense ACAUAGACUGUA; chemistry not fully specified)”, in series [1], the “ΔTm (° C.)” value was −4.5 °C and the “Tm (° C.)” value stood at 48.07 °C.

Turning to “AD-64367.2 (sense TACAGTCTATGT; antisense ACATAGACTGTA; DNA, backbone not given here)”, in series [2] (8×PBS), the “ΔTm (° C.)” value stood at 0.0 °C and the “Tm (° C.)b” value was determined as 49.1 °C. The “Tm (° C.)a” value in series [2] (1x PBS) was determined as 43.1 °C.

“AD-649426.1 (sense TACAGTCTATGT; antisense ACATAGACTGTA; sense: sugars from the 5' end d6 f1 d5, backbone not given here; antisense: sugars from the 5' end d5 f1 d6, backbone not given here)”: in series [1], the “ΔTm (° C.)” value stood at 0.1 °C and the “Tm (° C.)” value was 42.77 °C.

Turning to “AD-649417.1 (sense TACAGTCTATGT; antisense ACATAGACTGTA; chemistry not fully specified)”, in series [1], the “ΔTm (° C.)” value is 0.65 °C and the “Tm (° C.)” value is 43.07 °C.

As for “AD-649415.1 (sense UACAGUCUAUGU; antisense ACAUAGACUGUA; sense: sugars from the 5' end r5 f1 r6, backbone not given here; antisense: sugars from the 5' end r6 f1 r5, backbone not given here)”, in series [1], the “ΔTm (° C.)” value is 1.6 °C and the “Tm (° C.)” value stood at 54.22 °C.

Turning to “AD-649412.1 (sense UACAGUCUAUGU; antisense ACAUAGACUGUA; sense: RNA, backbone not given here; antisense: chemistry not given here; further chemistry not fully specified)”, in series [1], the “ΔTm (° C.)” value stood at 0.55 °C and the “Tm (° C.)” value was determined as 53.17 °C.

“AD-64366.3 (sense UACAGUCUAUGU; antisense ACAUAGACUGUA; RNA, backbone not given here)”: in series [1], the “ΔTm (° C.)” value is 0 °C and the “Tm (° C.)” value came out at 52.57 °C.

In the case of “AD-649418.1 (sense TACAGTCTATGT; antisense ACATAGACTGTA; sense: chemistry not given here; antisense: DNA, backbone not given here; further chemistry not fully specified)”, in series [1], the “ΔTm (° C.)” value is −1.78 °C and the “Tm (° C.)” value came out at 40.64 °C.

“AD-649423.1 (sense TACAGTCTATGT; antisense ACATAGACTGTA; sense: sugars from the 5' end d6 f1 d5, backbone not given here; antisense: DNA, backbone not given here)”: in series [1], the “ΔTm (° C.)” value is −0.325 °C and the “Tm (° C.)” value is 42.345 °C.

“AD-649414.1 (sense UACAGUCUAUGU; antisense ACAUAGACUGUA; chemistry not fully specified)”: in series [1], the “ΔTm (° C.)” value came out at 0.45 °C and the “Tm (° C.)” value was determined as 53.07 °C.

As for “AD-72587.2 (sense UACAGUCUAUGU; antisense ACAUAGACUGUA; siRNA; one TNA cytidine in sense strand, plain letters not given here, further chemistry not given here)”, in series [1], the “ΔTm (° C.)” value is −5.45 °C and the “Tm (° C.)” value came to 47.12 °C.

In the case of “AD-64366.4 (sense UACAGUCUAUGU; antisense ACAUAGACUGUA; RNA, backbone not given here)”, in series [1], the “ΔTm (° C.)” value came to 0 °C and the “Tm (° C.)” value was 52.62 °C.

With “AD-511246.1 (sense UACAGUCUAUGU; antisense ACATAGACTGTA; sense: chemistry not given here; antisense: DNA, backbone not given here; sense strand has one mUNA-type uridine (Uun))”, in series [2] (8×PBS), the “ΔTm (° C.)” value is −20.5 °C and the “Tm (° C.)b” value was 24.6 °C. For the same substance, in series [2] (1x PBS), the “Tm (° C.)a” value was under 30 °C.

Turning to “AD-649420.1 (sense TACAGTCTATGT; antisense ACATAGACTGTA; chemistry not fully specified)”, in series [1], the “ΔTm (° C.)” value is −2.5 °C and the “Tm (° C.)” value was 39.92 °C.

On to “AD-511256.1 (sense TACAGUCTATGT; antisense ACAUAGACUGUA; sense: chemistry not given here; antisense: RNA, backbone not given here; sense strand has one mUNA-type uridine (Uun))”, for which, in series [2] (8×PBS), the “ΔTm (° C.)” value is −20.6 °C and the “Tm (° C.)b” value is 28.6 °C. Also, the “Tm (° C.)a” value in series [2] (1x PBS) was under 30 °C.

Regarding “AD-649422.1 (sense TACAGTCTATGT; antisense ACATAGACTGTA; sense: DNA, backbone not given here; antisense: sugars from the 5' end d6 f1 d5, backbone not given here)”, in series [1], the “ΔTm (° C.)” value is −0.4 °C and the “Tm (° C.)” value amounted to 42.27 °C.

Turning to “AD-64981.2 (sense TACAGUCTATGT; antisense ACATAGACTGTA; siRNA; sense: sugars from the 5' end d5 f1 d6, backbone not given here; antisense: DNA, backbone not given here)”, in series [1], the “ΔTm (° C.)” value is −2.615 °C and the “Tm (° C.)” value amounted to 40.055 °C.

Turning to “AD-72585.2 (sense UACAGTCUAUGU; antisense ACAUAGACUGUA; siRNA; one TNA thymine in sense strand, plain letters not given here, further chemistry not given here)”, in series [1], the “ΔTm (° C.)” value is −4.825 °C and the “Tm (° C.)” value turned out to be 47.745 °C.
